# Laboratory results published in patent US20120295920A1, “5-AMINO-4-HYDROXYPENTOYL AMIDES” (priority 2009, published 2012).
# Read-outs that look alike come from different tables or passages of the source.
# Key:
# HIV-1 wild-type strain = assay: General antiviral assay, cell-based virus replication in MT4-LTR-EGFP cells, wild-type strain; details: wild-type strain IIIB, MT4-LTR-EGFP cells
# Procedure, shortened: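 HIV LTR-driven EGFP reporter MT4 cells (150,000 cells/ml) infected at MOI 0.0025 with or without inhibitor at various concentrations. Read-out either GFP fluorescence on day 3 post-infection or resazurin cell viability on day 4.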
# [1] = system: HIV-1 Strain A (M046I, I084V); assay: microbe, parasite or virus in culture; format: cell-based
# Procedure, shortened: (§1)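 MT4 cells stably carrying an HIV LTR-driven EGFP reporter (150,000 cells/ml) were infected at MOI 0.0025 with or without inhibitor dilutions. Replication was read either as GFP fluorescence on day 3 post-infection or as cell viability by resazurin on day 4.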
# [2] = system: HIV-1 Strain B (M046I, I050V); assay: microbe, parasite or virus in culture; format: cell-based
# Procedure, shortened: as §1
# [3] = system: HIV-1 Strain C (G048G/V, V082A); assay: microbe, parasite or virus in culture; format: cell-based
# Procedure, shortened: as §1
# [4] = General toxicity assay on mock-infected MT4 cells with CMV-EGFP reporter (CC50); format: cell-based; details: human; mock-infected MT4 cells with CMV-EGFP reporter; read-out: TOX-MT4CMV (CC50)
# HIV-1 IIIB = assay: 50% HS-Rezazurin: antiviral assay in the presence of 50% human serum, MT-4 cells, resazurin cell viability; format: cell-based
# Procedure, shortened: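 MT-4 cells infected with HIV-1 IIIB (MOI 0.001 to 0.01 CCID50/cell) for 1 h, washed, then plated onto serial compound dilutions in 50% human serum (10% FCS alternative). After 4 days, EC50 derived from resazurin cell viability.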
# mock-infected MT4 cells = assay: General toxicity assay on mock-infected MT4 cells with CMV-EGFP reporter (CC50); format: cell-based
# [5] = Human immunodeficiency virus 1, read-out: A EC50
# [6] = Human immunodeficiency virus 1, read-out: B EC50
# [7] = Human immunodeficiency virus 1, read-out: C EC50
# [8] = Human immunodeficiency virus 1, IIIB, MT4, 96 h
# [9] = clinical isolate Strain A, read-out: A EC50
# [10] = clinical isolate Strain B, read-out: B EC50
# [11] = clinical isolate Strain C, read-out: C EC50
# [12] = MT4LTR cells, read-out: TOX-MT4LTR (CC50)
# [13] = mock-infected MT4 cells with CMV-EGFP reporter, read-out: TOX-MT4CMV (CC50)
SMILES,EC50 (HIV-1 wild-type strain; Human immunodeficiency virus 1) [nM],"EC50 [1, 5] [nM]","EC50 [2, 6] [nM]","EC50 [3, 7] [nM]",CC50 [4] [nM],EC50 (HIV-1 IIIB; [8]) [nM],EC50 (HIV-1 wild-type strain) [nM],"EC50 [1, 9] [nM]","EC50 [2, 10] [nM]","EC50 [3, 11] [nM]",CC50 (mock-infected MT4 cells; [12]) [nM],EC50 (HIV-1 IIIB) [nM],CC50 (mock-infected MT4 cells; [13]) [nM]
COC(=O)N[C@H](C(=O)N[C@@H](Cc1ccc(-c2cc(C)nc(C)c2)cc1)[C@@H](O)C[C@@H](Cc1cccc(Cl)c1)C(=O)N[C@H]1c2ccccc2OC[C@H]1O)C(C)(C)C [Compound 4],5.6,3.9,3.9,2.7,> 32000,31.2,,,,,,,
COC(=O)N[C@H](C(=O)N[C@@H](Cc1ccc(-c2cnc(C(C)C)s2)cc1)[C@@H](O)C[C@@H](Cc1ccccc1F)C(=O)N[C@H]1c2cc(Cl)ccc2OC[C@H]1O)C(C)(C)C [Compound 32],5.9,5,3.7,3.1,2200,28.6,,,,,,,
COC(=O)N[C@H](C(=O)N[C@@H](Cc1ccc(-c2cnc(C(C)C)s2)cc1)[C@@H](O)C[C@@H](Cc1ccccc1F)C(=O)N[C@H]1c2ccccc2OC[C@H]1O)C(C)(C)C [Compound 38],7.1,4.4,3.6,2.6,10000,37.9,,,,,,,
COc1ccc(-c2ccc(C[C@H](NC(=O)O[C@H]3CO[C@H]4OCC[C@H]43)[C@@H](O)C[C@@H](Cc3ccccc3Cl)C(=O)N[C@H]3c4cc(F)ccc4OC[C@H]3O)cc2)cn1 [Compound 77],,,,,,,1.9,1.6,1,0.7,> 32000,6.5,
COc1ccc(-c2ccc(C[C@H](NC(=O)O[C@H]3CO[C@H]4OCC[C@H]43)[C@@H](O)C[C@@H](Cc3ccccc3Cl)C(=O)N[C@H]3c4cc(Cl)ccc4OC[C@H]3O)cc2)cn1 [Compound 78],,,,,,,2.1,1.9,1.4,0.9,> 32000,10.6,
COc1ccc(-c2ccc(C[C@H](NC(=O)O[C@H]3CO[C@H]4OCC[C@H]43)[C@@H](O)C[C@@H](Cc3ccccc3F)C(=O)N[C@H]3c4cc(F)ccc4OC[C@H]3O)cc2)cn1 [Compound 80],,,,,,,2.4,1.5,1.1,0.8,> 32000,10.9,
COc1ccc(-c2ccc(C[C@H](NC(=O)O[C@H]3CO[C@H]4OCC[C@H]43)[C@@H](O)C[C@@H](Cc3ccccc3F)C(=O)N[C@H]3c4cc(Cl)cc(F)c4OC[C@H]3O)cc2)cn1 [Compound 81],,,,,,,4.1,2.8,2.4,1.3,> 32000,13.4,
COc1ccc(-c2ccc(C[C@H](NC(=O)O[C@H]3CO[C@H]4OCC[C@H]43)[C@@H](O)C[C@@H](Cc3ccccc3F)C(=O)N[C@H]3[C@H](C)CCC[C@H]3O)cc2)cn1 [Compound 82],,,,,,,1.8,1.1,0.8,0.7,> 27000,5.1,
COC(=O)N[C@H](C(=O)N[C@@H](Cc1ccc(-c2cnc(C)s2)cc1)[C@@H](O)C[C@@H](Cc1ccccc1F)C(=O)N[C@H]1[C@H](C)CC[C@H]1O)C(C)(C)C [Compound 83],,,,,,,4,8.3,2.5,2.7,,14.3,> 32000
CCc1ncc(-c2ccc(C[C@H](NC(=O)[C@@H](NC(=O)OC)C(C)(C)C)[C@@H](O)C[C@@H](Cc3ccccc3F)C(=O)N[C@H](C(=O)NC)C(C)(C)C)cc2)s1 [Compound 84],,,,,,,6.4,4.7,3.3,2.4,,28,> 32000
COC(=O)N[C@H](C(=O)N[C@@H](Cc1ccc(-c2ccc(OC)nc2)cc1)[C@@H](O)C[C@@H](Cc1cccc(F)c1)C(=O)N[C@H]1c2ccc(F)cc2OC[C@H]1O)C(C)(C)C [Compound 85],,,,,,,2.9,3,1.3,1.1,> 32000,17.5,> 32000
COC(=O)N[C@H](C(=O)N[C@@H](Cc1ccc(-c2ccc(N(C)C)nc2)cc1)[C@@H](O)C[C@@H](Cc1ccccc1F)C(=O)N[C@H]1c2ccc(Cl)cc2OC[C@H]1O)C(C)(C)C [Compound 86],,,,,,,2.6,7.5,1.4,1.3,> 32000,17.1,
COC(=O)N[C@H](C(=O)N[C@@H](Cc1ccc(-c2ccc(N(C)C)nc2)cc1)[C@@H](O)C[C@@H](Cc1ccccc1F)C(=O)N[C@H]1[C@H](C)CC[C@H]1O)C(C)(C)C [Compound 87],,,,,,,4.7,8,1.9,5.4,,14.4,> 32000
CNC(=O)[C@@H](NC(=O)[C@H](Cc1ccccc1F)C[C@H](O)[C@H](Cc1ccc(-c2ccc(OC)nc2)cc1)NC(=O)[C@@H](NC(=O)OC)C(C)(C)C)C(C)(C)C [Compound 88],,,,,,,3.4,4.8,2.8,3,,9.9,> 32000
COC(=O)N[C@H](C(=O)N[C@@H](Cc1ccc(-c2ccc(OC)nc2)cc1)[C@@H](O)C[C@@H](Cc1ccccc1Cl)C(=O)N[C@H]1[C@H](C)CCC[C@H]1O)C(C)(C)C [Compound 91],,,,,,,1.1,2.6,0.7,1,16000,3.2,17000
COCCNC(=O)[C@@H](NC(=O)[C@H](Cc1cccc(F)c1)C[C@H](O)[C@H](Cc1ccc(-c2ccc(OC)nc2)cc1)NC(=O)[C@@H](NC(=O)OC)C(C)(C)C)C(C)(C)C [Compound 92],,,,,,,2.6,4.2,1.8,2.9,> 32000,8.4,> 32000
COC(=O)N[C@H](C(=O)N[C@@H](Cc1ccc(-c2ccc(OC)nc2)cc1)[C@@H](O)C[C@@H](Cc1cccc(OC(F)(F)F)c1)C(=O)N[C@H]1[C@H](C)CCC[C@H]1O)C(C)(C)C [Compound 94],,,,,,,0.9,1.9,0.8,1.4,> 32000,7.1,
COC(=O)N[C@H](C(=O)N[C@@H](Cc1ccc(-c2ccc(OC)nc2)cc1)[C@@H](O)C[C@@H](Cc1ccccc1Cl)C(=O)N[C@H]1c2ccsc2CC[C@H]1O)C(C)(C)C [Compound 95],,,,,,,1.5,2.2,1.3,1,23000,5.9,
COc1ccc(-c2ccc(CC(NC(=O)C(NC(=O)CN3CCCC3)C(C)(C)C)C(O)CC(Cc3ccccc3F)C(=O)NC3C(C)CCCC3O)cc2)cn1 (stereo not shown) [Compound 97],,,,,,,5.6,4.7,2.8,2,> 32000,12.7,
COCCNC(=O)[C@@H](NC(=O)[C@H](Cc1ccccc1Cl)C[C@H](O)[C@H](Cc1ccc(-c2ccc(OC)nc2)cc1)NC(=O)[C@@H](NC(=O)OC)C(C)(C)C)C(C)(C)C [Compound 98],,,,,,,2.1,3.7,1,2.2,> 32000,11.2,
COC(=O)NC(C(=O)NC(Cc1ccc(-c2ccc(OC)nc2)cc1)C(O)CC(Cc1ccccc1F)C(=O)NC1C(C)CCC1O)C(C)(C)C (stereo not shown) [Compound 99],,,,,,,1.1,1.7,0.6,0.9,> 32000,3.3,
COC(=O)NC(C(=O)NC(Cc1ccc(-c2ccc(OC)nc2)cc1)C(O)CC(Cc1ccccc1F)C(=O)NC1CCCCC1O)C(C)(C)C (stereo not shown) [Compound 100],,,,,,,1.8,1.8,0.7,0.8,> 32000,5.9,
COC(=O)NC(C(=O)NC(Cc1ccc(-c2ccc(OC)nc2)cc1)C(O)CC(Cc1ccccc1F)C(=O)NC1c2cc(C)cc(F)c2OCC1O)C(C)(C)C (stereo not shown) [Compound 101],,,,,,,2.8,2.5,2.4,1.7,> 32000,9.8,
COC(=O)NC(C(=O)NC(Cc1ccc(-c2ccc(OC)nc2)cc1)C(O)CC(Cc1ccccc1F)C(=O)NC1c2cc(F)cc(C)c2OCC1O)C(C)(C)C (stereo not shown) [Compound 102],,,,,,,2.3,5.4,3.3,1.5,> 32000,6.8,
Cc1cccc(C)c1OCC(=O)N[C@@H](Cc1ccccc1)[C@@H](O)C[C@H](Cc1ccccc1)NC(=O)[C@H](C(C)C)N1CCCNC1=O [LPV],,,,,,,13,110,320,31,> 32000,61,20000
